Test results reported in patent US8252958B2, “Use of guanabenz and its derivatives for making drugs for treating cystic fibrosis and diseases related to a protein addressing deficiency in the cells” (Centre National de la Recherche Scientifique (CNRS), priority 2006, dated 2012).

Assays:
[1] = molecular target: T1, delF508-CFTR (Homo sapiens, UniProt P13569, DEL508-508); test: Competition experiments by the iodide efflux technique between guanabenz and the chaperone machinery of the ER; type: cell-based
T1 construct: The CF15 cells are human epithelial cells of nasal origin which express the ΔF508-CFTR gene; endogenous in cells; host or cells: CF15 human airway epithelial cells (F508del/F508del)
Experimental: The measurements of chloride ion transport in the cells were performed with the aid of the radioactive iodide efflux technique (Becq et al., 1999; Dormer et al., 2001). The tracer (^125I) is incorporated into the intracellular medium. Next, the quantity of radiotracer which leaves the cell is counted after the addition of various pharmacological agents. The iodide is used as chloride ion transport tracer. ^125I further has the advantage of having a short life compared with that of other markers such as […] (respective ½ life: […] and 300 000 years).
The cells are cultured on 24-well plates in a suitable medium. Two rinses with efflux medium (NaCl: 136.6 mM, KCl: 5.4 mM, KH2PO4: 0.3 mM, NaH2PO4: 0.3 mM, NaHCO3: 4.2 mM, CaCl2: 1.3 mM, MgCl2: 0.5 mM, MgSO4: 0.4 Mm, HEPES: 10 mM, D-glucose: 5.6 mM) are performed in order to remove the dead cells which anarchically release radioactivity. Next, the cells are incubated with 500 μl of load (1 μCi/ml of ^125INa) for 30 min for the CHO-WT cells or 1 h for the CF15 and Calu-3 cells. The iodide forms an equilibrium on either side of the cell membrane. The robot (MultiPROBE, Packard) carries out the following steps: the load medium is rinsed with efflux medium in order to remove the extracellular radioactivity. The supernatant is collected every minute in hemolysis tubes and the medium is replaced with an equivalent volume (500 μl). No drug is added to the samples collected for the first 3 minutes, they make it possible to obtain a stable baseline, characterizing the passive outflow of the I ions. […] At the end of the experiment, the cells are lysed by adding 500 μl of NaOH (0.1N)/0.1% SDS (30 min), thus the radioactivity remaining inside the cell can be determined. The radioactivity present in the hemolysis tubes is counted in counts per minute (cpm) using a gamma counter (Cobra II, Packard). […] In order to quantify the outflow of iodide due to the administration of the test molecule, the following relative flow is calculated, which makes it possible to dispense with the basal flow: relative speed (min^−1)=Rpic−Rbasal. […]

[2] = molecular target: T1, delF508-CFTR; test: Iodide efflux (radiotracer) after 2 h treatment of CF15 cells, forskolin activation; type: cell-based

T1 sequence (P13569 with tags, fused parts or gaps DEL508-508): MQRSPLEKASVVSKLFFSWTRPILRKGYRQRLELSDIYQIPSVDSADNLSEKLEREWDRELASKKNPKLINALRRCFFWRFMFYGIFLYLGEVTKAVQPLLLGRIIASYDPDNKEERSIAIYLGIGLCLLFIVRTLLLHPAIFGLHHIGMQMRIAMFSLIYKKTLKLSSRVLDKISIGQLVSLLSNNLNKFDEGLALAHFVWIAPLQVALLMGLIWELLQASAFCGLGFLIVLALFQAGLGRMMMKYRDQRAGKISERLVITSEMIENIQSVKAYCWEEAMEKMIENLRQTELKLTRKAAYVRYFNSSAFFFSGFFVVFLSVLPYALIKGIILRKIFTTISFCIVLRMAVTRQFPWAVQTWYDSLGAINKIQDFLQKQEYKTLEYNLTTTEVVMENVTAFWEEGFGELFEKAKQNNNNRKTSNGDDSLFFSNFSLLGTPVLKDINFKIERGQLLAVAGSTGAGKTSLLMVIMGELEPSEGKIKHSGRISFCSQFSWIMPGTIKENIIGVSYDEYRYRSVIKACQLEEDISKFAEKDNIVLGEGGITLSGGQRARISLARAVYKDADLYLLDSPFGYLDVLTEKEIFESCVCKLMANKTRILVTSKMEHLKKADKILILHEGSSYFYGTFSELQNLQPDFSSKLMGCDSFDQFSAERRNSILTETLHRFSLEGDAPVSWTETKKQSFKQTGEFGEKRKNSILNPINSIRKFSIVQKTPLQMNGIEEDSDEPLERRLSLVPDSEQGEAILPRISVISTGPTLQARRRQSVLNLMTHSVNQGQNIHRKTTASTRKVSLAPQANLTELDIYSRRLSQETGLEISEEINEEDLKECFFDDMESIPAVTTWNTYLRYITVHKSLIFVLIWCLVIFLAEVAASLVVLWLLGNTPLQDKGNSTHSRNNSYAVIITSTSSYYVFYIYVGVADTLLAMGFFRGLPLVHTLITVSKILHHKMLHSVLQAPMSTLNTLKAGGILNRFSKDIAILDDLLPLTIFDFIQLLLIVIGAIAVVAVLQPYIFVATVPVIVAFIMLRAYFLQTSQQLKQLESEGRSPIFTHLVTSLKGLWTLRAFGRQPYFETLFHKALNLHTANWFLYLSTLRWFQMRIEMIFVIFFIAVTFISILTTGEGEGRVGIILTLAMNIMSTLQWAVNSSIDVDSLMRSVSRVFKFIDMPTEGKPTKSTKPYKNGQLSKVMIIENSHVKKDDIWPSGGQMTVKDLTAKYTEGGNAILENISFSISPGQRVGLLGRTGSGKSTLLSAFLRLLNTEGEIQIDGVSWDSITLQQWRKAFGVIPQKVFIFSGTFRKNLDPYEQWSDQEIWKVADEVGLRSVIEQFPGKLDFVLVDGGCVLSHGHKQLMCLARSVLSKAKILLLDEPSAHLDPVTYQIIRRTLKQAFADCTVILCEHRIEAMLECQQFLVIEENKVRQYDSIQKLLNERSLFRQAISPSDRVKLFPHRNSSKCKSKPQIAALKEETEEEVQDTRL

**Q.** N=C(N)N/N=C/c1c(Cl)cccc1Cl [guanabenz] was tested. Which “effect of guanabenz in the presence of Brefeldine-A (BFA)” value ([1]; BFA, inhibitor of vesicular ERGIC traffic) did it give?
**A.** inhibition of the effect of guanabenz

**Q.** And the “effect of guanabenz in the presence of MG132” value ([1]; MG132, proteasome inhibitor)?
**A.** No modulation of the effect of guanabenz

**Q.** What about the “effect of guanabenz in the presence of swainsonine” value ([1]; swainsonine, mannosidase inhibitor) of the same molecule?
**A.** low potentiation of the effect of guanabenz

**Q.** What about the “readdressing of the mutated protein F508del-CFTR to the membrane” value ([2]; CF15 cells (F508del/F508del) treated with guanabenz) of the same molecule?
**A.** allows readdressing of the mutated protein F508del-CFTR to the membrane

**Q.** And the EC50 ([2]; CF15 cells, 2 h of treatment, iodide efflux, read-out: EC50 of readdressing of the protein F508del-CFTR)?
**A.** 40 µM
